Measured values reported in US9796674B2, “Benzyl urea derivatives for activating TGF-beta signaling” (THE BOARD OF TRUSTEES OF THE LELAND STANFORD JUNIOR …, priority 2013, dated 2017).
Entries after “also recorded” stand apart in the source; their conditions may differ.

Legend:
[1] = Cytotoxicity in VERO cells; format: cell-based; conditions: African green monkey, read-out: LC50 (the source's name)
Method: In Vitro Cytotoxicity: The cytotoxicity of SRI-011381 was determined in primary rat hepatocytes and in VERO cells.
Cytotoxicity: In vitro cytotoxicity assays are used to estimate the relative toxicity of test compounds, e.g. a set of chemical analogs prior to efficacy screening. To estimate “basal” toxicity, a cell line such as VERO cells are typically used. Additional factors including drug metabolism can alter the relative toxicity of a compound in vivo. Primary cultures from liver (either laboratory species or human) can be used to assess the relative toxicity of compounds where metabolism may be a factor.

[2] = system: hippocampal neurons; experiment: Aβ-induced neuritic dystrophy in primary hippocampal neurons; format: cell-based, mouse; conditions: for average numbers of dystrophic neurites per neuron: 21-22 DIV
Method: Primary hippocampal neurons isolated from E16 CF1 embryos were aged for 6-7 days or 21-22 days, then challenged with 5 μM oligomeric Aβ in the presence or absence of compounds, and assayed for neurotoxicity (cell survival as above) or neuritic dystrophy, respectively. For quantification of neuritic dystrophy, fixed cells were immune-stained with a MAP-2 monoclonal antibody to label dendrites.
Primary hippocampal neurons were isolated from E16 CF1 embryos. Twenty-four-well culture plates were coated with 10 μg/ml poly-L-lysine. Cells were seeded overnight at a density of 30,000 cells/well in DMEM/F-12 medium supplemented with 10% FBS and penicillin/streptomycin, and subsequently maintained in Neurobasal medium containing 2% B27 supplement. Cells were aged for 6-7 days or 21-22 days, then challenged with 5 μM Aβ in the presence or absence of compounds, and assayed for neurotoxicity or neuritic dystrophy, respectively. Cells were treated for 72 h for neurotoxicity assay and 48 h for neuritic dystrophy assay. At the end of treatment, an equal volume of 4% PFA was added, plates incubated at room temperature for 15 min and then washed three times with DPBS. Cells were kept in the last wash of DPBS at 4° C. until being counted or stained.
For quantification of neuritic dystrophy, fixed cells were immunostained with a MAP-2 monoclonal antibody (Sigma-Aldrich). […] MAP2 positive dendrites were observed under an inverted fluorescence microscope (Olympus). […] To quantify neurite curvature, an established method was modified for assessment of neurite curvature. Neurite tracks were digitized and approximated by a series of connected line segments using ImageJ (NIH). The angle of each segment was determined using a Sigmaplot macro, and the results were averaged to give the ‘mean differential curvature’. This parameter reflects the degree of neurite curvature with an increasing value indicating increased curvature. Neurite counting and quantification were performed in randomly selected fields (5 fields/well). All quantitative assessments were done by investigators blinded with respect to treatment conditions.

[3] = system: TGF-β signaling; experiment: F11 SBE-SEAP reporter cell assay; format: cell-based, mouse; conditions: F11 SBE-SEAP reporter cell line
From the text: In another aspect, methods are provided for treating or preventing the progression of a disease or condition characterized by a reduction in TGF-β signaling. One category of such diseases or conditions is neurodegenerative disorders. One example is Alzheimer's disease (AD), or another disease characterized by the deposition of amyloid plaques and overall accumulation of Aβ in the brain. Experiments performed in support of the present compositions and methods are described, below. • TGF-β reporter gene and cells for screening compounds: An in vitro screening method was developed to identify small-molecule chemical compounds with TGF-β1-like bioactivity. The method utilized a fusion gene consisting of the luciferase or secreted alkaline phosphatase (SEAP) reporter gene under control of the TGF-β responsive Smad-binding element (SBE) minimal promoter sequence, as shown in FIGS. 1A and 1B. To screen for compounds that mimic TGF-β bioactivity, reporter cell lines were prepared by stably-integrating SBE-SEAP into C6 astrocytoma cells, a primary astrocyte line derived from tgfb1^−/− mice, a mouse embryonic fibroblast cell line derived from tgfb1^−/− mice (MFB-F11), and NG108-15 neuroblastoma cells. Such cell lines remained stable for at least 20 passages. Use of a tgfb1^−/− genetic background avoids interference by the […] tgfb1 gene. • Initial compound screening: A library with 5,000 chemically diverse small molecules (average Mr 200 Da) was obtained from Comgenex LLC (South San Francisco, Calif.). […]
The compounds were all tested in the F11 cell activity assay (fibroblast stably transfected with SBE-SEAP construct). […] Compounds with promising activity were evaluated using tier 1 assays such as permeability assays to measure blood-brain barrier transport, metabolic stability assays, and solubility assays. […]

[4] = system: human macrophages differentiated from THP-1 monocytic cell lines; experiment: Fibrillar Aβ clearance by THP-1 macrophages; format: cell-based; conditions: 24 h, 2, 5, or 10 μM
Method: SRI-011381 promotes Aβ clearance in cell culture: TGF-β1 promotes Aβ clearance in a microglia cell line. To test whether SRI-011381 has similar properties, mouse J774A.1 macrophages and human macrophages differentiated from THP-1 monocytic cell lines were treated with fibrillar Aβ in the absence or presence of compound (2, 5, or 10 μM) for 24 h. Conditioned medium was harvested and the remaining Aβ that was not phagocytosed by macrophages was quantified by Aβ ELISA.
FIGS. 4A and 4B present data from experiments in which human macrophages differentiated from THP-1 monocytic cell lines and mouse J774A.1 macrophages were incubated with fibrillar Aβ in the absence or presence of compound (2 or 5 μM) for 24 h. Conditioned medium was harvested and the remaining Aβ was quantified by Aβ ELISA. The collected medium (FIGS. 4C-4D) was added to N2A-APP-Swe cells (mouse Neuro-2A neuroblastoma cells stably expressing Swedish APP695) and incubated for 24 h. Neurotoxicity was quantified by an MTS Assay.
Mouse J774A.1 macrophages and human macrophages that were differentiated from THP-1 monocytic cell lines were treated with fibrillar Aβ42 in the absence or presence of SRI-011382 or its derivative compounds (2, 5, or 10 μM) for 24 h. Conditioned medium was harvested and the remaining Aβ42 that was not phagocytosed by macrophages was quantified by Aβ42 ELISA kit (Invitrogen). […]

## O=C(NC1CCCCC1)N(Cc1ccccc1)CC1CCNCC1 [SRI-011381, 1-Benzyl-3-cyclohexyl-1-(piperidin-4-ylmethyl)urea]
[1]
  CC50: 167 µM
[2]; 5 μM Aβ, 48 h
  average numbers of dystrophic neurites per neuron: markedly reduced
[3]
  activity in the reporter cell assay: showed activity
[3]; listed as 381
  activity in the reporter cell assay: activates TGF-β signaling in reporter cell line
[4]
  fibrillar Aβ clearance: promoted fibrillar Aβ clearance; also recorded: promoted fibrillar Aβ42 clearance
[4]; listed as SRI-11381
  fibrillar Aβ clearance: promote fibrillar Aβ42 clearance

## O=C(NC1CCCCC1)N(C/C=C/c1ccc(F)cc1)CC1CCNCC1 [SRI-011382]
[2]
  Aβ-induced increase in neurite curvature (mean differential curvature): prevented
[2]; 3 μM compound, 5 μM Aβ, 48 h
  Aβ-induced tortuosity: markedly reduced
[2]; 5 μM Aβ, 48 h
  average numbers of dystrophic neurites per neuron: markedly reduced
[3]
  activity in the reporter cell assay: superior activity
